Source: ChEMBL document CHEMBL1949618, “Synthesis and properties of mRNA cap analogs containing imidodiphosphate moiety--fairly mimicking natural cap structure, yet resistant to enzymatic hydrolysis” (Bioorg Med Chem, 2012)
Active and inactive are the calls of the source. No cut-off for these calls is given here.

Experiments:
[1] = target: Eukaryotic translation initiation factor 4E (Oryctolagus cuniculus) (UniProt P29338); assay: Inhibition of eIF4E-mediated mRNA translation in rabbit reticulocyte lysate assessed as translation efficiency after 60 mins by luciferase reporter gene assay relative to m7GpppG-capped mRNA
[2] = target: Eukaryotic translation initiation factor 4E (Homo sapiens) (UniProt P06730); assay: Binding affinity to recombinant eIF4E by fluorescence quenching titration method
[3] = Stability of the compound assessed as human recombinant DcpS -mediated hydrolysis after 2 hrs by HPLC; assay type: ADME
[4] = species on record: Homo sapiens; assay: Selectivity ratio of Ka for human recombinant DcpS to Ka for eIF4E
[5] = Chemical stability of the compound in aqueous buffer at pH 8 assessed as decomposition at 5 mM after 24 hrs by RP-HPLC; assay type: physicochemical; details: read-out: Drug degradation
[6] = target: T1, Eukaryotic translation initiation factor 4E (Oryctolagus cuniculus, UniProt P29338); assay: Inhibition of eIF4E-mediated mRNA translation in rabbit reticulocyte lysate pre-incubated for 60 mins prior to mRNA addition by luciferase reporter gene assay
[7] = Chemical stability of the compound in aqueous buffer at pH 2 assessed as decomposition at 5 mM up to 2 hrs by RP-HPLC; assay type: physicochemical; details: pH 2, 2 h, 5000 µM
[8] = Chemical stability of the compound in aqueous buffer at pH 6 assessed as decomposition at 5 mM up to 2 hrs by RP-HPLC; assay type: physicochemical; details: pH 6, 2 h, 5000 µM
[9] = Chemical stability of the compound in aqueous buffer at pH 2 assessed as decomposition at 5 mM after 24 hrs by RP-HPLC; assay type: physicochemical; details: read-out: Drug degradation
[10] = Stability of the compound at -20 degreeC after 12 months; assay type: physicochemical; details: 8766 h
[11] = target: T1, Eukaryotic translation initiation factor 4E; assay: Inhibition of eIF4E-mediated mRNA translation in rabbit reticulocyte lysate by luciferase reporter gene assay
[12] = Chemical stability of the compound in aqueous buffer at pH 8 assessed as decomposition at 5 mM up to 2 hrs by RP-HPLC; assay type: physicochemical; details: pH 8, 2 h, 5000 µM
[13] = Chemical stability of the compound in aqueous buffer at pH 6 assessed as decomposition at 5 mM after 24 hrs by RP-HPLC; assay type: physicochemical; details: read-out: Drug degradation
[14] = tested on: Nucleic Acid; assay: Capping efficiency in mRNA after 60 mins by gel electrophoresis in the presence of SP6 polymerase; assay type: nucleic-acid assay
[15] = target: T2, m7GpppX diphosphatase (Homo sapiens) (UniProt Q96C86)
T2 sequence (whole entry): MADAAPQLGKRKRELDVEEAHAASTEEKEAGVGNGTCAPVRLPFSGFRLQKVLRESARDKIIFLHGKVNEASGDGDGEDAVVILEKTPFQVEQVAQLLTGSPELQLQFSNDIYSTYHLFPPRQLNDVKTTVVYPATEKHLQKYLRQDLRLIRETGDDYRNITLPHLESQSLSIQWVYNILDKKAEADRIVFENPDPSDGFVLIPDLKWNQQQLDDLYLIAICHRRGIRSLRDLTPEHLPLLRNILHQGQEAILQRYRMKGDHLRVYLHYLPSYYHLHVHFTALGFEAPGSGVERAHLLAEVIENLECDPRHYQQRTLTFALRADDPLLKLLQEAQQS
Description: Binding affinity to human recombinant DcpS by fluorescence quenching titration method

Eukaryotic translation initiation factor 4E (Homo sapiens), sequence (P06730 whole entry): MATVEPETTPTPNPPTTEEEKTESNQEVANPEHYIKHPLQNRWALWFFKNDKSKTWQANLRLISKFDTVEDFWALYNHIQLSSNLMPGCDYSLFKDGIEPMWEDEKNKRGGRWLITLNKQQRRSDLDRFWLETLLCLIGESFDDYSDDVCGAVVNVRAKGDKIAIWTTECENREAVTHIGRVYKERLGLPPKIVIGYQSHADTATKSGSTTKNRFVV
T1 sequence (P29338 whole entry): as the sequence (P06730 whole entry) above, with T16P, T17A, E174D counted along it
Eukaryotic translation initiation factor 4E (Oryctolagus cuniculus), sequence (P29338 whole entry): as the sequence (P06730 whole entry) above, with T16P, T17A, E174D counted along it

In the case of CO[C@@H]1[C@H](O)[C@@H](COP(=O)(O)OP(=O)([O-])OP(=O)(O)OP(=O)(O)OC[C@H]2O[C@@H](n3cnc4c(=O)[nH]c(N)nc43)[C@H](O)[C@@H]2O)O[C@H]1n1c[n+](C)c2c(O)nc(N)nc21, the fold change (FC) [1] is reported as 1.56, the Ka [2] is reported as 99.8 µM⁻¹ and the Drug degradation [3] is reported as “Active”.
With CO[C@@H]1[C@H](O)[C@@H](COP(=O)(O)CP(=O)(O)OP(=O)([O-])OC[C@H]2O[C@@H](n3cnc4c(=O)[nH]c(N)nc43)[C@H](O)[C@@H]2O)O[C@H]1n1c[n+](C)c2c(O)nc(N)nc21 the fold change (FC) [1] was 1.1.
Work on C[n+]1cn([C@@H]2O[C@H](COP(=O)(O)CP(=O)(O)OP(=O)([O-])OP(=O)(O)OC[C@H]3O[C@@H](n4cnc5c(=O)[nH]c(N)nc54)[C@H](O)[C@@H]3O)[C@@H](O)[C@H]2O)c2nc(N)nc(O)c21 yielded a Ratio [4] of 3.1 and a Ka [2] of 51.8 µM⁻¹.
For C[n+]1cn([C@@H]2O[C@H](COP(=O)([O-])OP(=O)(O)OP(=O)(O)NP(=O)(O)OC[C@H]3O[C@@H](n4cnc5c(=O)[nH]c(N)nc54)[C@H](O)[C@@H]3O)[C@@H](O)[C@H]2O)c2nc(N)[nH]c(=O)c21.N.N.N, the degraded at 24 h, 5000 µM [5] was under 10%, the IC50 [6] was 16 µM and the Drug degradation [7] was “Not Active”. For the same compound, the Drug degradation [8] was “Not Active”, the degraded at 24 h, 5000 µM [9] was under 10% and the Ka [2] was 141 µM⁻¹. For the same compound, the Stability [10] was “Stable”, the IC50 [11] was 3.52 µM and the Drug degradation [12] was “Not Active”. For the same compound, the degraded at 24 h, 5000 µM [13] was under 10% and the Drug degradation [3] was “Active”.
Work on CO[C@H]1[C@@H](O)[C@H](n2c[n+](C)c3c(O)nc(N)nc32)O[C@@H]1COP(=O)(O)OP(=O)([O-])OP(=O)(O)OC[C@H]1O[C@@H](n2cnc3c(=O)[nH]c(N)nc32)[C@H](O)[C@@H]1O yielded a fold change (FC) [1] of 1.47.
With CO[C@@H]1[C@H](O)[C@@H](COP(=O)([O-])NP(=O)([O-])OP(=O)([O-])OC[C@H]2O[C@@H](n3cnc4c(=O)[nH]c(N)nc43)[C@H](O)[C@@H]2O)O[C@H]1n1c[n+](C)c2c(=O)[nH]c(N)nc21.[Na+].[Na+] the degraded at 24 h, 5000 µM [5] was under 10%, the Activity [14] was “Active” and the Drug degradation [7] was “Not Active”. The Drug degradation [8] was “Not Active”, the fold change (FC) [1] was 1.13 and the degraded at 24 h, 5000 µM [9] was under 10%. The Ratio [4] was 1.8, the Ka [2] was 18.5 µM⁻¹ and the Stability [10] was “Stable”. The Ka [15] was 33.6 µM⁻¹, the Drug degradation [12] was “Not Active” and the degraded at 24 h, 5000 µM [13] was under 10%. For the same compound, the Drug degradation [3] was “Not Active”.
With C[n+]1cn([C@@H]2O[C@H](COP(=O)([O-])NP(=O)(O)OP(=O)(O)OC[C@H]3O[C@@H](n4cnc5c(=O)[nH]c(N)nc54)[C@H](O)[C@@H]3O)[C@@H](O)[C@H]2O)c2nc(N)[nH]c(=O)c21.N.N the degraded at 24 h, 5000 µM [5] was under 10%, the IC50 [6] was 3.74 µM and the Drug degradation [7] was “Not Active”. The Drug degradation [8] was “Not Active”, the degraded at 24 h, 5000 µM [9] was under 10% and the Ratio [4] was 15. The Ka [2] was 14.6 µM⁻¹, the Stability [10] was “Stable” and the Ka [15] was 218 µM⁻¹. The IC50 [11] was 3.97 µM, the Drug degradation [12] was “Not Active” and the degraded at 24 h, 5000 µM [13] was under 10%. The Drug degradation [3] was “Not Active”.
CO[C@@H]1[C@H](O)[C@@H](COP(=O)(O)CP(=O)(O)OP(=O)([O-])OP(=O)(O)OC[C@H]2O[C@@H](n3cnc4c(=O)[nH]c(N)nc43)[C@H](O)[C@@H]2O)O[C@H]1n1c[n+](C)c2c(O)nc(N)nc21 showed a fold change (FC) [1] of 1.5.
For C[n+]1cn([C@@H]2O[C@H](COP(=O)(O)OP(=O)([O-])OP(=O)(O)OC[C@H]3O[C@@H](n4cnc5c(=O)[nH]c(N)nc54)[C@H](O)[C@@H]3O)[C@@H](O)[C@H]2O)c2nc(N)nc(O)c21, the fold change (FC) [1] was 1, the Ratio [4] was over 1 and the Ka [2] was 12.5 µM⁻¹.
In the case of Nc1nc2c(ncn2[C@@H]2O[C@H](COP(=O)(O)OP(=O)(O)OP(=O)(O)OC[C@H]3O[C@@H](n4cnc5c(N)ncnc54)[C@H](O)[C@@H]3O)[C@@H](O)[C@H]2O)c(=O)[nH]1, the fold change (FC) [1] is reported as 0.18.
C[n+]1cn([C@@H]2O[C@H](COP(=O)(S)OP(=O)(O)OP(=O)([O-])OC[C@H]3O[C@@H](n4cnc5c(=O)[nH]c(N)nc54)[C@H](O)[C@@H]3O)[C@@H](O)[C@H]2O)c2nc(N)[nH]c(=O)c21 (some centres not stated) gave a Ka [15] of 146 µM⁻¹.
In the case of C[n+]1cn([C@@H]2O[C@H](COP(=O)(O)OP(=O)(O)OP(=O)(O)OP(=O)(O)OC[C@H]3O[C@@H](n4cnc5c(=O)[nH]c(N)nc54)[C@H](O)[C@@H]3O)[C@@H](O)[C@H]2O)c2nc(N)[n-]c(=O)c21, the IC50 [6] is reported as over 20 µM, the IC50 [11] is reported as 5 µM and the Drug degradation [3] is reported as “Active”.
In the case of CO[C@@H]1[C@H](O)[C@@H](COP(=O)([O-])OP(=O)([O-])OP(=O)([O-])NP(=O)([O-])OC[C@H]2O[C@@H](n3cnc4c(=O)[nH]c(N)nc43)[C@H](O)[C@@H]2O)O[C@H]1n1c[n+](C)c2c(=O)[nH]c(N)nc21.[Na+].[Na+].[Na+], the degraded at 24 h, 5000 µM [5] is reported as under 10%, the Activity [14] is reported as “Active” and the Drug degradation [7] is reported as “Not Active”. The Drug degradation [8] was “Not Active”, the fold change (FC) [1] was 1.01 and the degraded at 24 h, 5000 µM [9] was under 10%. For the same compound, the Ka [2] was 132 µM⁻¹, the Stability [10] was “Stable” and the Drug degradation [12] was “Not Active”. For the same compound, the degraded at 24 h, 5000 µM [13] was under 10% and the Drug degradation [3] was “Active”.
Compound C[n+]1cn([C@@H]2O[C@H](COP(=O)(O)OP(=O)([O-])OP(=O)(O)OC[C@H]3O[C@@H](n4cnc5c(=O)[nH]c(N)nc54)[C@H](O)[C@@H]3O)[C@@H](O)[C@H]2O)c2nc(N)[nH]c(=O)c21 has an IC50 [6] of over 20 µM.
With CO[C@@H]1[C@H](O)[C@@H](COP(=O)([O-])NP(=O)(O)OP(=O)(O)OP(=O)(O)OC[C@H]2O[C@@H](n3cnc4c(=O)[nH]c(N)nc43)[C@H](O)[C@@H]2O)O[C@H]1n1c[n+](C)c2c(=O)[nH]c(N)nc21.N.N.N the degraded at 24 h, 5000 µM [5] was under 10%, the Activity [14] was “Active” and the Drug degradation [7] was “Not Active”. For the same compound, the Drug degradation [8] was “Not Active”, the fold change (FC) [1] was 0.73 and the degraded at 24 h, 5000 µM [9] was under 10%. For the same compound, the Ratio [4] was 0.38, the Ka [2] was 125 µM⁻¹ and the Stability [10] was “Stable”. For the same compound, the Ka [15] was 47.4 µM⁻¹, the Drug degradation [12] was “Not Active” and the degraded at 24 h, 5000 µM [13] was under 10%. The Drug degradation [3] was “Not Active”.
Compound CO[C@@H]1[C@H](O)[C@@H](COP(=O)(O)OP(=O)([O-])OP(=O)(O)OC[C@H]2O[C@@H](n3cnc4c(=O)[nH]c(N)nc43)[C@H](O)[C@@H]2O)O[C@H]1n1c[n+](C)c2c(O)nc(N)nc21 has a Ka [2] of 10.8 µM⁻¹.
For CO[C@@H]1[C@H](O)[C@@H](COP(=O)([O-])OP(=O)(O)CP(=O)(O)OC[C@H]2O[C@@H](n3cnc4c(=O)[nH]c(N)nc43)[C@H](O)[C@@H]2O)O[C@H]1n1c[n+](C)c2c(O)nc(N)nc21, the fold change (FC) [1] was 1.25.
With C[n+]1cn([C@@H]2O[C@H](COP(=O)(O)CP(=O)(O)OP(=O)([O-])OC[C@H]3O[C@@H](n4cnc5c(=O)[nH]c(N)nc54)[C@H](O)[C@@H]3O)[C@@H](O)[C@H]2O)c2nc(N)nc(O)c21 the Ratio [4] was 37.1 and the Ka [2] was 6.3 µM⁻¹.
With C[n+]1cn([C@@H]2O[C@H](COP(=O)(O)OP(=O)(O)OP(=O)([O-])OP(=O)(O)OC[C@H]3O[C@@H](n4cnc5c(=O)[nH]c(N)nc54)[C@H](O)[C@@H]3O)[C@@H](O)[C@H]2O)c2nc(N)nc(O)c21 the Ka [2] was 111 µM⁻¹.
Work on CO[C@@H]1[C@H](O)[C@@H](COP(=O)(O)OP(=O)([O-])OP(=O)(O)CP(=O)(O)OC[C@H]2O[C@@H](n3cnc4c(=O)[nH]c(N)nc43)[C@H](O)[C@@H]2O)O[C@H]1n1c[n+](C)c2c(O)nc(N)nc21 yielded a fold change (FC) [1] of 1.56.
With C[n+]1cn([C@@H]2O[C@H](COP(=O)([O-])NP(=O)([O-])OP(=O)([O-])OP(=O)([O-])OC[C@H]3O[C@@H](n4cnc5c(=O)[nH]c(N)nc54)[C@H](O)[C@@H]3O)[C@@H](O)[C@H]2O)c2nc(N)[nH]c(=O)c21.[Na+].[Na+].[Na+] the degraded at 24 h, 5000 µM [5] was under 10%, the IC50 [6] was 3.58 µM and the Drug degradation [7] was “Not Active”. For the same compound, the Drug degradation [8] was “Not Active”, the degraded at 24 h, 5000 µM [9] was under 10% and the Ratio [4] was 1.4. For the same compound, the Ka [2] was 112 µM⁻¹, the Stability [10] was “Stable” and the Ka [15] was 155 µM⁻¹. For the same compound, the IC50 [11] was 2.62 µM, the Drug degradation [12] was “Not Active” and the degraded at 24 h, 5000 µM [13] was under 10%. For the same compound, the Drug degradation [3] was “Not Active”.
